Experiment: Delivery and clearance of fluorescent molecule in suprachoroidal space of live rabbits
Type: in vivo
Conditions: live rabbit
Description: The delivery of a fluorescent molecule (sodium fluorescein) to the suprachoroidal space was evaluated using rabbits according to approved live animal experimental protocols. A one dimensional scan of the eye (through line of sight) was taken within the first five minutes after injection to determine the dispersion of the fluorescent molecule in the eye (FIG. 14). The y-axis indicates the fluorescent intensity (i.e., the concentration) and the x-axis represents the position in the eye from front (160) to back (0). Thus, the results illustrate that within the first 5 minutes after injection, the fluorescein had already flowed through the suprachoroidal space to the back of the eye, with some remaining at the initial insertion site.
Similar scans were taken to evaluate the rate of clearance of fluorescein from the suprachoroidal space over time (FIG. 15). The fluorescent intensity was measured in two regions of the eye (the suprachoroidal space and mid-vitreous region) over time.

Which results are given for O=C1OC2(c3ccc(O)cc3Oc3cc(O)ccc32)c2ccccc21 [sodium fluorescein]?
Distribution suprachoroidal space vs mid-vitreous region (fluorescent intensity over time): remains in the suprachoroidal space without passing into the mid-vitreous region; Time to substantial clearance from the suprachoroidal space (suprachoroidal injection): ≤ 24 h; Time after injection by which it had flowed through the suprachoroidal space to the back of the eye (suprachoroidal injection, line of sight scan): ≤ 5 min

From patent US10905586B2, “Methods and devices for drug delivery to ocular tissue using microneedle” (Emory University, priority 2006, dated 2021)
